Laboratory results: publication PMC5653977 (EMBO Molecular Medicine, 2017)
Structures can show the parent of a compound that is named as a salt.

These molecules were tested on NRG1-ERBB4 signaling (assay: Nrg1-ERBB4-PIK3R1 split TEV co-culture compound screen of the NIH Clinical Collection). Conditions: NIH Clinical Collection NCC-003 raw data; compounds ranked by Z-score; 'flagged' given instead of a Z-score.
Assay type: cell-based, human
Description: For our HTS‐compatible split TEV assay approach, human full‐length ERBB4‐Cyt1 was fused to the NTEV fragment, a TEV protease cleavage site (tevS) and the artificial co‐transcriptional activator Gal4‐VP16 (ERBB4‐NTEV‐tevS‐GV); human PIK3R1 was fused to the CTEV fragment (PIK3R1‐CTEV) (Fig 1A). Upon ERBB4 activation, PIK3R1 is recruited to the receptor resulting in a reconstituted protease activity that cleaves off GV. In turn, released GV translocates to the nucleus and binds to upstream activating sequences (UAS) to activate the transcription of a firefly luciferase reporter gene (Fig 1A). A constitutively expressed Renilla luciferase driven under the control of the human thymidine kinase (TK) promoter was used as control to address off‐target effects related to toxicity.
For small molecule screening, the NIH‐NCC Clinical Collection library (sets NCC‐003 and NCC‐201) was used containing 727 small molecules that are FDA‐approved and have a history in clinical applications (www.nihclinicalcollection.com). A Hamilton Labstar robot connected to 37 and 4°C incubators for cell incubation and compound storage and application (Cytomat automated incubator, ThermoScientific) and to a luciferase reader (Berthold Technologies) was used to automatically perform the screening. […] Each batch was screened three times.
For one 96‐well plate, 4 × 10^6 PC12 cells were harvested and diluted in 5 ml assay medium (phenol red‐free DMEM (low glucose, Life Technologies), 10% FCS, 5% HS, no antibiotics). The split TEV assay plasmids (2 μg pcDNA3_ERBB4‐NTEV‐tevS‐GV‐2xHA, 2 μg pTag4C_PIK3R1‐CTEV‐2xHA, 2 μg p5xUAS_firefly luciferase, 2 μg pTK_Renilla luciferase, and 0.5 μg pECFP‐C1 for examining transfection efficiency) were diluted in 2.5 ml Opti‐MEM (Life Technologies) and vortexed. In parallel, 20 μl of the transfection reagent Lipofectamine 2000 was diluted in 2.5 ml Opti‐MEM and vortexed.
For plating of one 96‐well plate, 10 ml suspension, containing the 4 × 10^6 in solution‐transfected cells, was placed in the bubble paddle reservoir of the Hamilton Cellstar robot. 100 μl was seeded per 96‐well using the 96‐tip pipetting head. The homogeneity of the cell suspension was guaranteed over time by mild stirring using the paddling device inside the reservoir. For five plates each, 50 ml of additional cell suspension was used to allow for losses of inaccessible volume.
The cells were allowed to express the plasmids for 24 h before compounds were added. Proper expression and transfection efficiency were verified by ECFP expression on a clear control plate. The compounds were applied in a final concentration of 10 μM using DMSO as diluent. […] Thirty minutes later, 10,000 Nrg1‐expressing PC12 cells in 100 μl assay medium were seeded on top. 24 h after addition of the compounds, the cells were lysed using 40 μl Passive Lysis buffer (Promega) and subjected to a Dual Luciferase Assay (Promega) according to the manufacturer's instructions. The data were analyzed in R Bioconductor using the package cellHTS2 (http://www.bioconductor.org/packages/devel/bioc/html/cellHTS2.html), assessed using the z‐score, and visualized using the program Mondrian (http://stats.math.uni-augsburg.de/mondrian/).

Row | SMILES | Z-SCORE
1 | CC(C)C[C@H](NC(=O)[C@@H](O)[C@H](N)Cc1ccccc1)C(=O)O [BESTATIN] | -1.11
2 | CC(NC(C)(C)C)C(=O)c1cccc(Cl)c1 (centres unmarked) [BUPROPION HYDROCHLORIDE] | -2.1
3 | c1ccc(-c2ccc(C(c3ccccc3)n3ccnc3)cc2)cc1 (centres unmarked) [Bifonazole, reference compound] | -3.45
4 | CCCCCCNC(=O)n1cc(F)c(=O)[nH]c1=O [CARMOFUR] | -2.48
5 | OC[C@H]1O[C@@H](n2cnc3c(NC4CCCC4)nc(Cl)nc32)[C@H](O)[C@@H]1O [CCPA] | -1.19
6 | COCc1c(C(C)C)nc(C(C)C)c(/C=C/[C@@H](O)C[C@@H](O)CC(=O)[O-])c1-c1ccc(F)cc1.[Na+] [CERIVASTATIN Na] | flagged
7 | CC(C)/N=c1\cc2n(-c3ccc(Cl)cc3)c3ccccc3nc-2cc1Nc1ccc(Cl)cc1 [CLOFAZIMINE] | flagged
8 | COc1ccccc1OCCNCC(O)COc1cccc2[nH]c3ccccc3c12 (centres unmarked) [Carvedilol] | -1.89

Same assay, conditions: compound screen of the NIH Clinical Collection, sheet raw data NCC-003; compounds ranked by Z-score

Row | SMILES | Z-SCORE
9 | C[C@]12CC[C@@H]3c4ccc(O)cc4CC[C@H]3[C@@H]1CC[C@@H]2O [BETA-ESTRADIOL] | 0.81
10 | CC(O)(CS(=O)(=O)c1ccc(F)cc1)C(=O)Nc1ccc(C#N)c(C(F)(F)F)c1 (centres unmarked) [BICALUTAMIDE] | 0
11 | CC(C)NCC(O)COc1ccc(COCCOC(C)C)cc1 (centres unmarked) [BISOPROLOL FUMARATE] | 0.59
12 | C[C@H]1C[C@H]2[C@@H]3CCC4=CC(=O)C=C[C@]4(C)[C@@]3(Cl)[C@@H](O)C[C@]2(C)[C@@]1(O)C(=O)CO [Beclomethasone] | -0.67
13 | N#CCc1ccccc1 [Benzeneacetonitrile] | 0.03
14 | CC(C)NCC(O)COc1ccc(CCOCC2CC2)cc1 (centres unmarked) [Betaxolol hydrochloride] | 1.56
15 | COc1cc2c(cc1OC)[C@@]13CCN4CC5=CCO[C@H]6CC(=O)N2[C@H]1[C@H]6[C@H]5C[C@H]43 [Brucine] | 0.21
16 | COc1cc(OC)c(C(=O)CCCN2CCCC2)c(OC)c1.Cl [Buflomedil HCl] | 0.75
17 | C=C1/C(=C\C=C2/CCC[C@]3(C)[C@@H]([C@H](C)/C=C/[C@@H](O)C4CC4)CC[C@@H]23)C[C@@H](O)C[C@@H]1O [CALCIPOTRIOL] | -0.04
18 | C=C1/C(=C\C=C2/CCC[C@]3(C)[C@@H]([C@H](C)CCCC(C)(C)O)CC[C@@H]23)C[C@@H](O)C[C@@H]1O [CALCITRIOL] | -0.48
19 | N[C@@H](C(=O)N[C@@H]1C(=O)N2C(C(=O)O)=C(Cl)CS[C@H]12)c1ccccc1 [CEFACLOR] | -0.62
20 | CC(O)CO.N[C@@H](C(=O)N[C@@H]1C(=O)N2C(C(=O)O)=C(CSc3cn[nH]n3)CS[C@H]12)c1ccc(O)cc1 [CEFATRIZINE PROPYLENE GLYCOL] | 0.04
21 | C=CC1=C(C(=O)O)N2C(=O)[C@@H](NC(=O)/C(=N\OCC(=O)O)c3csc(N)n3)[C@H]2SC1 [CEFIXIME TRIHYDRATE] | 1.63
22 | COCC1=C(C(=O)OC(C)OC(=O)OC(C)C)N2C(=O)[C@@H](NC(=O)/C(=N\OC)c3csc(N)n3)[C@H]2SC1 (some centres unmarked) [CEFPODOXIME PROXETIL] | 0.53
23 | NC[C@H]1CC[C@H](C(=O)Oc2ccc(CCC(=O)O)cc2)CC1 [CETRAXATE HCl] | 0.04
24 | CN1CCN(c2nc3cc(C(F)(F)F)ccc3n3cccc23)CC1.O=C(O)/C=C\C(=O)O.O=C(O)/C=C\C(=O)O [CGS 12066B] | 0.3
25 | Nc1nc2ccc(Cl)cc2c2nc(-c3ccco3)nn12 [CGS 15943, reference compound] | 6.59
26 | CNC1=Nc2ccc(Cl)cc2C(c2ccccc2)=[N+]([O-])C1 [CHLORDIAZEPOXIDE] | 0.41
27 | CC[C@H]1OC(=O)[C@H](C)[C@@H](O[C@H]2C[C@@](C)(OC)[C@@H](O)[C@H](C)O2)[C@H](C)[C@@H](O[C@@H]2O[C@H](C)C[C@H](N(C)C)[C@H]2O)[C@](C)(OC)C[C@@H](C)C(=O)[C@H](C)[C@@H](O)[C@]1(C)O [CLARITHROMYCIN] | 0.55
28 | Clc1ccccc1C(c1ccccc1)(c1ccccc1)n1ccnc1 [CLOTRIMAZOLE] | -0.73
29 | C[C@]12C[C@H](O)[C@H]3[C@@H](CCC4=CC(=O)CC[C@@]43C)[C@@H]1CC[C@@H]2C(=O)CO [CORTICOSTERONE] | 0.4
30 | C[C@]12CCC(=O)C=C1CC[C@@H]1[C@@H]2C(=O)C[C@@]2(C)[C@H]1CC[C@]2(O)C(=O)CO [CORTISONE] | 0.26
31 | COc1cc(CNC(=O)CCCC/C=C/C(C)C)ccc1O [Capsaicin] | -0.46

Same assay, conditions: compounds at 10 μM, 24 h; PC12 split TEV assay cells co-cultured with Nrg1-expressing PC12 cells; analysed with cellHTS2

Row | SMILES | Z-SCORE
32 | CCCC1O[C@@H]2C[C@H]3[C@@H]4CCC5=CC(=O)C=C[C@]5(C)[C@H]4[C@@H](O)C[C@]3(C)[C@]2(C(=O)CO)O1 (some centres unmarked) [BUDESONIDE, reference compound] | -0.46
33 | CCCCNc1cc(C(=O)O)cc(S(N)(=O)=O)c1Oc1ccccc1 [BUMETANIDE, reference compound] | -0.03
34 | NS(=O)(=O)c1cc2c(cc1C(F)(F)F)NC(Cc1ccccc1)NS2(=O)=O (centres unmarked) [Bendrofluazide, reference compound] | 0.53
35 | C[C@H]1C[C@H]2[C@@H]3CCC4=CC(=O)C=C[C@]4(C)[C@@]3(F)[C@@H](O)C[C@]2(C)[C@@]1(O)C(=O)CO [Betamethasone, reference compound] | 3.82
36 | c1ccc(-c2ccc(C(c3ccccc3)n3ccnc3)cc2)cc1 (centres unmarked) [Bifonazole, reference compound] | -3.45
37 | Brc1c(NC2=NCCN2)ccc2nccnc12 [Brimonidine, reference compound] | 0.01
38 | O=C1CC2(CCCC2)CC(=O)N1CCCCN1CCN(c2ncccn2)CC1 [Buspar, reference compound] | -0.01
39 | CS(=O)(=O)OCCCCOS(C)(=O)=O [Busulfan, reference compound] | 0.13
40 | C[C@H](CS)C(=O)N1CCC[C@H]1C(=O)O [CAPTOPRIL, reference compound] | -0.02
41 | C[C@@](Cc1ccc(O)c(O)c1)(NN)C(=O)O [CARBIDOPA, reference compound] | -1.58
42 | Cc1nnc(SCC2=C(C(=O)O)N3C(=O)[C@@H](NC(=O)Cn4cnnn4)[C@H]3SC2)s1 [CEFAZOLIN SODIUM SALT, reference compound] | -0.74
43 | CO/N=C(\C(=O)N[C@@H]1C(=O)N2C(C(=O)O)=C(COC(C)=O)CS[C@H]12)c1csc(N)n1 [CEFOTAXIME SODIUM SALT, reference compound] | -0.2
44 | CO[C@@]1(NC(=O)Cc2cccs2)C(=O)N2C(C(=O)O)=C(COC(N)=O)CS[C@@H]21 [CEFOXITIN SODIUM SALT, reference compound] | 2.55
45 | O=C(O)CCCc1ccc(N(CCCl)CCCl)cc1 [CHLORAMBUCIL, reference compound] | 0.14
46 | CCC(=O)O[C@]1(C(=O)CCl)[C@@H](C)C[C@H]2[C@@H]3CCC4=CC(=O)C=C[C@]4(C)[C@@]3(F)[C@@H](O)C[C@@]21C [CLOBETASOL PROPIONATE, reference compound] | -2.64
47 | CC(=O)OCC(=O)[C@@]1(O)CC[C@H]2[C@@H]3CCC4=CC(=O)CC[C@]4(C)[C@H]3C(=O)C[C@@]21C [CORTISONE ACETATE, reference compound] | 0.08
48 | NC(=O)N1c2ccccc2C=Cc2ccccc21 [Carbamazepine, reference compound] | -0.83
49 | CN(C)CCOC(c1ccc(Cl)cc1)c1ccccn1 (centres unmarked) [Carbinoxamine Maleate, reference compound] | -0.31
50 | COC(=O)C1=C(C)NC(C)=C(C(=O)OCCN(C)Cc2ccccc2)C1c1cccc([N+](=O)[O-])c1 (centres unmarked) [Cardene, reference compound] | -1.07
51 | CCCC(C)(COC(N)=O)COC(=O)NC(C)C (centres unmarked) [Carisoprodol, reference compound] | -0.82
52 | CO/N=C(\C(=O)N[C@@H]1C(=O)N2C(C(=O)O)=C(COC(N)=O)CS[C@H]12)c1ccco1 [Cefuroxime, reference compound] | 0.08
53 | Cc1ccc(-c2cc(C(F)(F)F)nn2-c2ccc(S(N)(=O)=O)cc2)cc1 [Celecoxib, reference compound] | -0.36
